Test results reported in patent US4329347A, “Cardiotonic and antithrombotic sulfur-containing derivatives of carbostyril” (Boehringer Ingelheim GmbH, priority 1978, dated 1982).
Read-outs that look alike come from different tables or passages of the source.

Columns and labels:
[1] = system: thrombocyte aggregation in platelet-rich plasma of healthy human donors; assay: Thrombocyte aggregation inhibiting activity by the method of Born and Cross (platelet-rich plasma); type: cell-based; settings: optical density
Description: 1. Determination of the thrombocyte aggregation inhibiting activity by the method of Born and Cross [J. Physiol. 170, 397 (1964)]:
The thrombocyte aggregation was measured in the platelet-rich plasma of healthy human donors. The decrease in optical density was measured and recorded photometrically after the addition of adenosine diphosphate or collagen. From the angle of inclination of the density curve, the rate of aggregation was estimated (Vmax). The optical density was taken as the point on the curve where the most light was transmitted (O.D.).
The EC50 values in the tables indicate the optical density.
Small doses of collagen were chosen, but sufficient to give irreversible aggregation. To provoke maximum aggregation, about 0.01 ml of the collagen solution was added to 1 ml of platelet-rich plasma. (Commercial collagen of Hormonchemie, Munich). The adenosine diphosphate (ADP) doses were chosen to give only the first phase of the BORN curve. The necessary amount of ADP was about 1×10^-6 mol/l. Commercial ADP of Boehringer Mannheim was used.
The substance dose which produced a 50% inhibition of the thrombozytes aggregation (EC50) was determined graphically.

conscious mice = assay: Prolongation of the bleeding time (mouse tail); type: in vivo; settings: po, 10 mg/kg orally, after 1 hour, compared to control group, read-out: Prolongation of the bleeding time in % after one hour
Description: The function of the thrombocytes can be determined by measuring the bleeding time. The normal bleeding time in human beings is in the range of 1 to 3 minutes and needs intact thrombozytes in a sufficient number. If the number of thrombocytes is normal and the bleeding time is prolonged, this signifies a disturbed function of the thrombocytes. This is found in some congenital defects of thrombocyte function (V. Willebrand's disease, for example). If, on the other hand it is the aim to prevent spontaneous aggregation of the thrombocytes and occlusion in the arterial system by antithrombotic drugs, the bleeding time should be prolonged as a consequence. Therefore, using antithrombotic substances, a prolongation of the bleeding time is expected. If the plasma coagulation system is not influenced by such a medicine, coagulation tests will give a normal result.
To measure the bleeding time, 10 mg/kg of the test compound is administered orally to conscious mice. After 1 hour, 0.5 mm of the tip of the mousetail is cut off and droplets of blood are gently removed with filter paper every 30 second. The number of drops of blood give a measure for the bleeding time (5 animals/experiment).
The numbers in the following table represent the prolongation in % compared to the control group.

auricles (rat heart) = assay: Positive inotropic activity on isolated rat auricles; parameters: species or system rats; settings: 1×10^-5 gm/ml, 30° C., from the starting values, read-out: % Increase in Force of Contraction
Description: Rats were anesthetized with ether and subsequently killed by a blow on the neck. After opening the thorax, the heart was removed and both auricles were separated. The auricles were put into an organ bath of 100 ml containing a tyrode solution at a temperature of 30° C. The tyrode solution was infused with carbogen (95% of O2 and 5% of CO2). The spontaneous contractions of the auricles were registered isometrically. The auricles were weighted with 1 gm. The compounds in question were tested on 4 auricles each at 1×10^-5 gm/ml. The alteration of the contraction force was registered in % from the starting values.

[2] = system: phosphodiesterase (PDE), supernatant of human blood platelets; assay: PDE inhibition (3H-cAMP hydrolysis); type: biochemical; settings: human blood platelet PDE, 1 μmol/liter 3H-cAMP, pH 7.4, 15 minutes, 37° C.
Description: cAMP is hydrolysed to AMP by phosphodiesterase (PDE) from various sources, including blood platelets. This hydrolysis is inhibited by PDE inhibitors according to the concentration.
The phosphodiesterase used was the 10,000×g supernatant of human blood platelets which had been frozen with water and thawed out again.
An amount of 0.3 ml of a mixture which contained 0.1 mole/liter of trihydroxy-aminomethane (pH 7.4), 3 mmole/liter of magnesium chloride, 1 mmole/liter of AMP, 1 μmol/liter of ^3 H-cAMP (specific activity about 10 MBq/μmol), PDE as well as the substance to be tested and water for the control were incubated for 15 minutes at 37° C.
The incubation was stopped by the addition of 0.5 ml of zinc sulfate (0.266 mole/liter) and 0.5 ml of barium hydroxide (0.266 mole/liter), the precipitate was centrifuged and the activity remaining in the supernatant of the unreacted ^3 H-cAMP was determined. From a comparison of the substance preparations and the control preparations, the concentration for a 50% inhibiting activity (IC50) of the respective substance was calculated.

Acute toxicity, oral = type: in vivo; settings: mouse, in vivo; mice, single oral dose, 14 days observation; read-out: Acute Toxicity per os
Description: (§1) The acute toxicity of the test compounds was determined on groups of 10 mice each after oral administration of a single dose of 1,000 mg/kg (observation time: 14 days).

mice = assay: Acute toxicity, oral; type: in vivo; settings: single oral dose of 1,000 mg/kg, 14 days observation
Description: as §1

[3] = system: Platelet Thromboses in the Rat; assay: Influence on platelet thromboses in the rat (electrical irritation of a vein); type: in vivo; settings: male rats, five animals per dose, 20 minutes observation, vs. untreated group; dose not given
Description: Literature: H. Poliwoda, J. Lilli, G. Hagemann, D. Schyma: Z. ges. exp. Med., 145, 252 (1968)
Male rats (body weight between 70 and 90 grams) received an intraperitoneal Nembutal anesthesia (dose: 50 to 60 mg/kg). To avoid hypothermia, they were positioned on a heated test table (about 37° C.). The respiratory passage was held free by insertion of a tracheal cannula.
After a transverse abdominal incision was made, an intestinal loop was exposed and fixed, and a vein, with a diameter of about 300 μ was prepared. A monopolar platinum electrode embedded in glass and having a tip diameter of about 100μ was applied to the vein as an irritating cathode. The indifferent electrode was applied to the same vessel opposite the cathode. The irritation was provoked by 150 volts of direct current for a period of 100 milliseconds. After the irritation, the area of observation was continuously rinsed with warm (37° C.) physiological salt solution.
The formation and growth of the thrombosis was followed under a binocular microscope over a time period of 20 minutes. During the entire period of observation, the percentage of the vessel volume closed by the thrombosis was estimated at different time intervals.
Five animals per dose were used, and the results were averaged.
In the test compound experiments, the average size of the thrombosis in the treated animal group was compared with that of an untreated animal group. The result was given as "percentage reduction of the average thrombosis size." The following table contains the values obtained.

[4] = system: Walker-256 carcinosarcoma cells; assay: Effect on tumor cell embolism: mortality after injection of Walker-256 carcinosarcoma cells in mice; type: in vivo
Description: (a) Mice having a body weight of about 25 grams received an injection in the jugular vein of a million Walker-256 carcinosarcoma cells. These tumor cells lead to a formation of thrombocyte clumps, which causes a fatal tumor cell embolism in a portion of the animals. Under the influence of the test compounds, the number of deceased animals can be reduced. Normally, about 65% of the control animals died within 10 minutes as a result of pulmonary embolism.

[5] = system: thrombocytes (number in the blood after tumor cell injection); assay: Effect on tumor cell embolism: thrombocyte decrease after intravenous tumor cell injection in rats; type: in vivo; settings: control 70
From the text: (b) By virtue of the injection of tumor cells, a strong decrease in the number of thrombocytes in the blood was produced in the test animals (rats) as a consequence of thrombocyte and tumor cell thrombocyte aggregation. […] By administration of suitable substances, the extent of the thrombocyte decrease can be reduced as compared to that of the untreated control animals.

[6] = ADP-induced (about 1×10^-6 mol/l), read-out: EC50 (50% inhibition of thrombocyte aggregation), ADP
[7] = collagen-induced, read-out: EC50 (50% inhibition of thrombocyte aggregation), Collagen

SMILES | EC50 [1, 6] [µM] | EC50 [1, 7] [µM] | change in vivo at 10 mg/kg (conscious mice) [%] | activation at 10 µg/mL (auricles (rat heart)) [%] | IC50 [2] [µM] | LD50 at 336 h (Acute toxicity, oral) [mg/kg] | animals died (acute toxicity per os) (mice) | Percentage Reduction of the Average Thrombosis Size [3] [%] | Percentage of Deceased Animals ([4]; 2 mg/kg p.o.) [%] | Percentage of Deceased Animals ([4]; 6 mg/kg p.o.) [%] | % Reduction of the Number of Thrombocytes ([5]; dose 2 mg/kg) [%] | % Reduction of the Number of Thrombocytes ([5]; dose 6 mg/kg) [%] | % Reduction of the Number of Thrombocytes ([5]; dose 18 mg/kg) [%] | % Reduction of the Number of Thrombocytes ([5]; dose 4 mg/kg) [%] | % Reduction of the Number of Thrombocytes ([5]; dose 8 mg/kg) [%]
O=C1CCc2cc(OCCCCS(=O)(=O)c3ccccc3)ccc2N1 [Compound C, 6-(4-Phenylsulfonyl-butoxy)-3,4-dihydro-carbostyril] | 15 | 5 | 26 | 35 | 1.5 | > 1000 | 0 out of 10 animals | – | – | – | – | – | – | – | –
O=C1CCc2cc(OCCCC[S+]([O-])c3ccccc3)ccc2N1 (stereo not shown) [B, 6-(4-Phenylsulfinyl-butoxy)-3,4-dihydro-carbostyril] | 20 | 4 | 102 | 30 | 1.9 | > 1000 | 0 out of 10 animals | 23 | – | – | – | – | – | – | –
O=C1CCc2cc(OCCCC[S+]([O-])c3ccc(Cl)c(Cl)c3)ccc2N1 (stereo not shown) [U, 6-[4-(3,4-Dichlorophenyl-sulfinyl)-butoxy]-3,4-dihydro-carbostyril] | 15 | 4 | 33 | – | 0.27 | > 1000 | 0 out of 10 animals | 32 | 40 | 13 | 34 | 20.8 | 1.1 | – | –
O=c1ccc2cc(OCCCCS(=O)(=O)c3ccccn3)ccc2[nH]1 [T, 6-[4-(2-Pyridyl-sulfonyl)-butoxy]-carbostyril] | 6 | 0.1 | 5 | 32 | 1 | > 1000 | 0 out of 10 animals | 29 | 23 | 6.7 | 29 | – | – | 15 | 1.1
COc1ccccc1[S+]([O-])CCCCOc1ccc2c(c1)CCC(=O)N2 (stereo not shown) [M, 6-[4-(2-Methoxyphenyl-sulfinyl)-butoxy]-3,4-dihydro-carbostyril] | 22 | 4 | 27 | 65 | 0.15 | > 1000 | 0 out of 10 animals | – | – | – | – | – | – | – | –
Cc1cc(=O)[nH]c2ccc(OCCCC[S+]([O-])c3ccccc3)cc12 (stereo not shown) [Q, 4-Methyl-6-(4-phenylsulfinyl-butoxy)-carbostyril] | 40 | 3.6 | 39 | 58 | 0.64 | > 1000 | 0 out of 10 animals | 22 | – | – | – | – | – | – | –
O=C1CCc2cc(OCCCC[S+]([O-])c3ccccn3)ccc2N1 (stereo not shown) [E, 6-[4-(2-Pyridyl-sulfinyl)-butoxy]-3,4-dihydro-carbostyril] | 25 | 6.5 | 152 | 16 | 3.9 | > 1000 | 0 out of 10 animals | 16 | – | – | – | – | – | – | –
O=C1CCc2cc(OCCCC[S+]([O-])c3ccc(Cl)cc3)ccc2N1 (stereo not shown) [I, 6-[4-(4-Chlorophenyl-sulfinyl)-butoxy]-3,4-dihydro-carbostyril] | 10 | 4 | > 300 | 52 | 0.8 | > 1000 | 0 out of 10 animals | 4 | – | – | – | – | – | – | –
O=C1CCc2cc(OCCCC[S+]([O-])c3ccc4ccccc4c3)ccc2N1 (stereo not shown) [L, 6-[4-(2-Naphthyl-sulfinyl)-butoxy]-3,4-dihydro-carbostyril] | 10 | 1 | 15 | 63 | 0.14 | > 1000 | 0 out of 10 animals | – | – | – | – | – | – | – | –
O=C1CCc2cc(OCCCC[S+]([O-])c3cc(Cl)ccc3Cl)ccc2N1 (stereo not shown) [S, 6-[4-(2,5-Dichlorophenyl-sulfinyl)-butoxy]-3,4-dihydro-carbostyril] | 10 | 1 | – | 83 | 2.1 | > 1000 | 0 out of 10 animals | – | – | – | – | – | – | – | –
O=C1CCc2cc(OCCCCS(=O)(=O)c3ccccn3)ccc2N1 [F, 6-[4-(2-Pyridyl-sulfonyl)-butoxy]-3,4-dihydro-carbostyril] | 20 | 20 | 91 | 18 | 3.8 | > 1000 | 0 out of 10 animals | – | – | – | – | – | – | – | –
